Source: patent US20230172867A1, “A METHOD FOR TREATING CANCER WITH AN ORAL DOSAGE FORM OF AN FGFR4 INHIBITOR” (Eisai R&D Management Co., Ltd., priority 2020, published 2023)
Like-named read-outs stand apart in the source and are kept apart here.

Assay: Pharmacokinetic measurements of H3B-6527 capsules in patients (trial NCT02834780), plasma LC-MS/MS
Format: in vivo, human
Settings: human, plasma, oral; for AUC: read-out: AUC, geometric mean (CV%); for Cmax: read-out: Cmax, geometric mean (CV%)
From the text: A description of the first in human clinical trial for H3B-6527 can be found at the ClinicalTrials.gov by searching for trial identifier NCT02834780. In summary, the trial included a study population having the following characteristics: Adult patients ≥18 years old with advanced HCC or ICC; Progression after at least one prior therapy; ECOG score of 0 or 1; Well compensated liver function; FGF19-positive (dose expansion phase only); Excluded if patients have significant active infections [except hepatitis B virus (HBV) and hepatitis C virus (HCV)], gastric or esophageal varices, or previous FGF19-FGFR4 targeted therapy.
Blood samples are collected at the planned time points from each patient and centrifuged. The plasma portion of each sample is then transferred to a K2EDTA tube, which is then shipped to a bioanalytical lab for concentration measurement using LC-MS/MS. The concentration data are then analyzed using Phoenix® WinNonlin software to obtain PK parameters. The obtained PK parameters are further summarized using analytical software.
Drug Administration and Dosage for Dose Escalation: H3B-6527 was administered orally QD or BID on a 21-day cycle. […] Patients in dose escalation phase were treated regardless of FGF19 status. Response determined by RECIST 1.1/modified RECIST every 6 weeks
Further collection and collation of the PK results of the trial of Example 2 at a later point in time are reflected in the following Table 5:
The results of further analysis of the PK data of the trial of Example 2 with the actual date and time of the dose administration and PK sampling after QC, an update from the results of a preliminary analysis with the nominal (i.e. planned) dosing/PK sampling date/time presented in Example 3, are reflected in the following Table 6. In this example the number of patients from which each PK parameter was calculated is shown, rather than the total number of patients receiving a particular dose and regimen as in Table 5.

[1] = 600 mg, 600 mg QD, fed, Day 8, Table 6, actual times after QC
[2] = 700 mg, 700 mg BID, fed, Day 1, Table 6, actual times after QC
[3] = 700 mg, 700 mg BID, fed, Day 8, Table 6, actual times after QC
[4] = 1000 mg, 1000 mg QD, fasted, Day 1, Table 6, actual times after QC
[5] = 1000 mg, 1000 mg QD, fasted, Day 8, Table 6, actual times after QC
[6] = 1000 mg, 1000 mg QD, fed, Day 1, Table 6, actual times after QC
[7] = 1000 mg, 1000 mg QD, fed, Day 8, Table 6, actual times after QC
[8] = 1400 mg, 1400 mg QD, fasted, Day 1, Table 6, actual times after QC
[9] = 1400 mg, 1400 mg QD, fasted, Day 8, Table 6, actual times after QC
[10] = 1400 mg, 1400 mg QD, fed, Day 1, Table 6, actual times after QC
[11] = 1400 mg, 1400 mg QD, fed, Day 8, Table 6, actual times after QC
[12] = 2000 mg, 2000 mg QD, fed, Day 1, Table 6, actual times after QC
[13] = 2000 mg, 2000 mg QD, fed, Day 8, Table 6, actual times after QC

C=CC(=O)Nc1cc(N2CCN(CC)CC2)ccc1Nc1cc(N(C)C(=O)Nc2c(Cl)c(OC)cc(OC)c2Cl)ncn1 [H3B-6527, N-(2-((6-(3-(2,6-dichloro-3,5-dimethoxyphenyl)-1-methylureido)pyrimidin-4-yl)amino)-5-(4-ethylpiperazin-1-yl)phenyl)acrylamide]
Tmax (600 mg, 600 mg QD, fed, Day 8, Table 5, nominal times, read-out: Tmax, median (min-max)): 4.52 h
AUC [1]: 501 ng·h/mL
Cmax [1]: 99.6 ng/mL
half-life (600 mg, 600 mg QD, fed, Day 8, Table 6, actual times after QC, read-out: Half-life, geometric mean (CV%) (converted)): 5.88 h
Tmax (600 mg, 600 mg QD, fed, Day 8, Table 6, actual times after QC, read-out: Tmax, median (min-max)): 4.52 h
Cmax (700 mg, 700 mg BID, fed, Day 1, Table 5, nominal times): 163 ng/mL
half-life (700 mg, 700 mg BID, fed, Day 1, Table 5, nominal times, read-out: Half-life, geometric mean (CV%) (converted)): 2.1 h
Tmax (700 mg, 700 mg BID, fed, Day 1, Table 5, nominal times, read-out: Tmax, median (min-max)): 2.02 h
AUC [2]: 591 ng·h/mL
Cmax [2]: 163 ng/mL
half-life (700 mg, 700 mg BID, fed, Day 1, Table 6, actual times after QC, read-out: Half-life, geometric mean (CV%) (converted)): 2.13 h
Tmax (700 mg, 700 mg BID, fed, Day 1, Table 6, actual times after QC, read-out: Tmax, median (min-max)): 2.02 h
Cmax (700 mg, 700 mg BID, fed, Day 8, Table 5, nominal times): 167 ng/mL
half-life (700 mg, 700 mg BID, fed, Day 8, Table 5, nominal times, read-out: Half-life, geometric mean (CV%) (converted)): 2.2 h
Tmax (700 mg, 700 mg BID, fed, Day 8, Table 5, nominal times, read-out: Tmax, median (min-max)): 4.12 h
AUC [3]: 639 ng·h/mL
Cmax [3]: 167 ng/mL
half-life (700 mg, 700 mg BID, fed, Day 8, Table 6, actual times after QC, read-out: Half-life, geometric mean (CV%) (converted)): 2.18 h
Tmax (700 mg, 700 mg BID, fed, Day 8, Table 6, actual times after QC, read-out: Tmax, median (min-max)): 4.12 h
Cmax (1000 mg, 1000 mg QD, fasted, Day 1, Table 5, nominal times): 146 ng/mL
half-life (1000 mg, 1000 mg QD, fasted, Day 1, Table 5, nominal times, read-out: Half-life, geometric mean (CV%) (converted)): 4.5 h
Tmax (1000 mg, 1000 mg QD, fasted, Day 1, Table 5, nominal times, read-out: Tmax, median (min-max)): 2.01 h
AUC [4]: 854 ng·h/mL
Cmax [4]: 225 ng/mL
half-life (1000 mg, 1000 mg QD, fasted, Day 1, Table 6, actual times after QC, read-out: Half-life, geometric mean (CV%) (converted)): 4.48 h
Tmax (1000 mg, 1000 mg QD, fasted, Day 1, Table 6, actual times after QC, read-out: Tmax, median (min-max)): 2.02 h
Cmax (1000 mg, 1000 mg QD, fasted, Day 8, Table 5, nominal times): 197 ng/mL
half-life (1000 mg, 1000 mg QD, fasted, Day 8, Table 5, nominal times, read-out: Half-life, geometric mean (CV%) (converted)): 4.5 h
Tmax (1000 mg, 1000 mg QD, fasted, Day 8, Table 5, nominal times, read-out: Tmax, median (min-max)): 2.02 h
AUC [5]: 839 ng·h/mL
Cmax [5]: 187 ng/mL
half-life (1000 mg, 1000 mg QD, fasted, Day 8, Table 6, actual times after QC, read-out: Half-life, geometric mean (CV%) (converted)): 4.84 h
Tmax (1000 mg, 1000 mg QD, fasted, Day 8, Table 6, actual times after QC, read-out: Tmax, median (min-max)): 2 h
Cmax (1000 mg, 1000 mg QD, fed, Day 1, Table 5, nominal times): 188 ng/mL
half-life (1000 mg, 1000 mg QD, fed, Day 1, Table 5, nominal times, read-out: Half-life, geometric mean (CV%) (converted)): 4 h
Tmax (1000 mg, 1000 mg QD, fed, Day 1, Table 5, nominal times, read-out: Tmax, median (min-max)): 5.05 h
AUC [6]: 1120 ng·h/mL
Cmax [6]: 182 ng/mL
half-life (1000 mg, 1000 mg QD, fed, Day 1, Table 6, actual times after QC, read-out: Half-life, geometric mean (CV%) (converted)): 3.94 h
Tmax (1000 mg, 1000 mg QD, fed, Day 1, Table 6, actual times after QC, read-out: Tmax, median (min-max)): 6 h
Cmax (1000 mg, 1000 mg QD, fed, Day 8, Table 5, nominal times): 199 ng/mL
half-life (1000 mg, 1000 mg QD, fed, Day 8, Table 5, nominal times, read-out: Half-life, geometric mean (CV%) (converted)): 4.2 h
Tmax (1000 mg, 1000 mg QD, fed, Day 8, Table 5, nominal times, read-out: Tmax, median (min-max)): 4.08 h
AUC [7]: 796 ng·h/mL
Cmax [7]: 177 ng/mL
half-life (1000 mg, 1000 mg QD, fed, Day 8, Table 6, actual times after QC, read-out: Half-life, geometric mean (CV%) (converted)): 6.16 h
Tmax (1000 mg, 1000 mg QD, fed, Day 8, Table 6, actual times after QC, read-out: Tmax, median (min-max)): 2 h
half-life (1000 mg, following administration of 1000 mg (fasted), read-out: mean terminal half-life): 4 to 5 h
Cmax (1400 mg, 1400 mg QD, fasted, Day 1, Table 5, nominal times): 136 ng/mL
half-life (1400 mg, 1400 mg QD, fasted, Day 1, Table 5, nominal times, read-out: Half-life, geometric mean (CV%) (converted)): 5.3 h
Tmax (1400 mg, 1400 mg QD, fasted, Day 1, Table 5, nominal times, read-out: Tmax, median (min-max)): 1 h
AUC [8]: 400 ng·h/mL
Cmax [8]: 136 ng/mL
half-life (1400 mg, 1400 mg QD, fasted, Day 1, Table 6, actual times after QC, read-out: Half-life, geometric mean (CV%) (converted)): 6.13 h
Tmax (1400 mg, 1400 mg QD, fasted, Day 1, Table 6, actual times after QC, read-out: Tmax, median (min-max)): 1 h
Cmax (1400 mg, 1400 mg QD, fasted, Day 8, Table 5, nominal times): 362 ng/mL
half-life (1400 mg, 1400 mg QD, fasted, Day 8, Table 5, nominal times, read-out: Half-life, geometric mean (CV%) (converted)): 4.9 h
Tmax (1400 mg, 1400 mg QD, fasted, Day 8, Table 5, nominal times, read-out: Tmax, median (min-max)): 2.1 h
AUC [9]: 1260 ng·h/mL
Cmax [9]: 362 ng/mL
half-life (1400 mg, 1400 mg QD, fasted, Day 8, Table 6, actual times after QC, read-out: Half-life, geometric mean (CV%) (converted)): 4.56 h
Tmax (1400 mg, 1400 mg QD, fasted, Day 8, Table 6, actual times after QC, read-out: Tmax, median (min-max)): 2.1 h
Cmax (1400 mg, 1400 mg QD, fed, Day 1, Table 5, nominal times): 904 ng/mL
half-life (1400 mg, 1400 mg QD, fed, Day 1, Table 5, nominal times, read-out: Half-life, geometric mean (CV%) (converted)): 4.1 h
Tmax (1400 mg, 1400 mg QD, fed, Day 1, Table 5, nominal times, read-out: Tmax, median (min-max)): 5 h
AUC [10]: 5670 ng·h/mL
Cmax [10]: 904 ng/mL
half-life (1400 mg, 1400 mg QD, fed, Day 1, Table 6, actual times after QC, read-out: Half-life, geometric mean (CV%) (converted)): 4.13 h
Tmax (1400 mg, 1400 mg QD, fed, Day 1, Table 6, actual times after QC, read-out: Tmax, median (min-max)): 5 h
Cmax (1400 mg, 1400 mg QD, fed, Day 8, Table 5, nominal times): 827 ng/mL
half-life (1400 mg, 1400 mg QD, fed, Day 8, Table 5, nominal times, read-out: Half-life, geometric mean (CV%) (converted)): 4.4 h
Tmax (1400 mg, 1400 mg QD, fed, Day 8, Table 5, nominal times, read-out: Tmax, median (min-max)): 5.86 h
AUC [11]: 5450 ng·h/mL
Cmax [11]: 827 ng/mL
half-life (1400 mg, 1400 mg QD, fed, Day 8, Table 6, actual times after QC, read-out: Half-life, geometric mean (CV%) (converted)): 4.75 h
Tmax (1400 mg, 1400 mg QD, fed, Day 8, Table 6, actual times after QC, read-out: Tmax, median (min-max)): 5.86 h
Cmax (2000 mg, 2000 mg QD, fed, Day 1, Table 5, nominal times): 525 ng/mL
half-life (2000 mg, 2000 mg QD, fed, Day 1, Table 5, nominal times, read-out: Half-life, geometric mean (CV%) (converted)): 5.5 h
Tmax (2000 mg, 2000 mg QD, fed, Day 1, Table 5, nominal times, read-out: Tmax, median (min-max)): 2 h
AUC [12]: 2950 ng·h/mL
Cmax [12]: 540 ng/mL
half-life (2000 mg, 2000 mg QD, fed, Day 1, Table 6, actual times after QC, read-out: Half-life, geometric mean (CV%) (converted)): 4.14 h
Tmax (2000 mg, 2000 mg QD, fed, Day 1, Table 6, actual times after QC, read-out: Tmax, median (min-max)): 2.1 h
Cmax (2000 mg, 2000 mg QD, fed, Day 8, Table 5, nominal times): 451 ng/mL
half-life (2000 mg, 2000 mg QD, fed, Day 8, Table 5, nominal times, read-out: Half-life, geometric mean (CV%) (converted)): 5.7 h
Tmax (2000 mg, 2000 mg QD, fed, Day 8, Table 5, nominal times, read-out: Tmax, median (min-max)): 2.5 h
AUC [13]: 2580 ng·h/mL
Cmax [13]: 502 ng/mL
half-life (2000 mg, 2000 mg QD, fed, Day 8, Table 6, actual times after QC, read-out: Half-life, geometric mean (CV%) (converted)): 4.98 h
Tmax (2000 mg, 2000 mg QD, fed, Day 8, Table 6, actual times after QC, read-out: Tmax, median (min-max)): 4 h
Tmax (fasted, read-out: median plasma tmax): 1 to 3 h
